The source of these data is PMC8582287 (International journal of antimicrobial agents, 2020).

What is called CC50 is the concentration at which the toxic effect on the cells reaches its halfway point.

Each structure is given as a SMILES string. “Also recorded” adds a separate entry of the source. Like-named read-outs stand apart in the source and are kept apart here. Some results are limits rather than exact numbers.

In one data set the test system is HepG2 (hepatocyte) cells. Kind of data set: Cytotoxicity in HepG2 cells, Alamar Blue. The format is cell-based, human. Particulars: read-out: Cytotoxicity CC50 HEP-G2, 48h. In general terms: The colour change of resazurin is a common sign of viable cells or microbes.
The subject of data set [1] is zebrafish (Danio rerio) embryos. The experiment in a line: Zebrafish embryo development test with impact score Si. It counts as in vivo. Particulars: for Embryo toxicity in the zebrafish assay (in words) / Lowest concentration exerting a negative Si: 0.2-50 μM; for Embryo toxicity in the zebrafish assay (in words): 96hpf; for Lowest concentration exerting a negative Si: zebrafish embryos, until 96h post fertilization; for Embryonal alterations observed during BKI-exposure: 24h, representative image.

For data set [2], the system named is T. gondii oocyst infection. To be noted: pregnant CD1 mice, ref [20]; cited from earlier work.
The test system of data set [3] is N. caninum tachyzoites. To be noted: read-out: Proliferation EC50 N.caninum, ref [25]; cited from earlier work.
Data set [4] relates to pregnant BALB/c mice. Kind of data set: Assessment of BKI-interference in pregnancy in non-infected mice. Particulars: for Offspring mortality (dead/born pups): 50 mg/kg/day oral gavage for 5 days, follow-up 14 days.
Data set [5] deals with pregnant BALB/c mice. To be noted: mouse, in vivo, 50 mg/kg/day.
In data set [6] the test system is human foreskin fibroblasts (HFF). Kind of data set: Cytotoxicity in human foreskin fibroblasts, Alamar blue. The format is cell-based. To be noted: read-out: Cytotoxicity CC50 HFF, 3 days, 0.0009-20 μM.
The test system of data set [7] is human Ether-à-go-go Related Gene (hERG). Particulars: cited from earlier work.
In data set [8] the test system is CRL-8155 (lymphocyte) cells. Kind of data set: Cytotoxicity in CRL-8155 cells, Alamar Blue. The format is cell-based, human. Particulars: read-out: Cytotoxicity CC50 CRL-8155, 48h.
For data set [9], the system named is N. caninum tachyzoites. To be noted: read-out: Proliferation EC50 N.caninum.
The next data set relates to rats. To be noted: when dosed in rats; no reference given; cited from earlier work.
Data set [10] relates to Neospora-infected pregnant mice. To be noted: 50mg/kg, ref [23]; cited from earlier work.
[11] abbreviates: 50 mg/kg/day oral gavage in corn oil for 5 days.

As to `CCOc1ccc2cc(-c3nn(CC4CCN(C)CC4)c4ncnc(N)c34)ccc2c1` [BKI-1294], the CC50 in the data set on HepG2 (hepatocyte) cells was above 40 µM; in data set [6] it was above 20 µM; in data set [8] it was above 40 µM. In addition, in [1], the “Embryo toxicity in the zebrafish assay (in words)” value (“Embryo toxicity” below) is reported as “very low embryo toxicity”. Also, the figures for the “Lowest concentration exerting a negative Si” value in data set [1] and in [1] (listed as 1294) were at least 40 µM and 40 µM, respectively. Besides, in [2], the Offspring survival is 100%. In the data set on N. caninum tachyzoites [3], the EC50 is 0.04 µM. Besides, the “Offspring mortality (dead/born pups)” value in the data set with pregnant BALB/c mice [4] is reported as 0/27. The “Overall number of pups born” value in the data set on pregnant BALB/c mice [5] was 27. The Pups/dams in the data set on pregnant BALB/c mice [5] (po) is 27/4. The “hERG inhibition in vitro” value in [7] (ref [24]) is “inhibited”.

Take `CCOc1ccc2cc(-c3nn(CC4CCN(C)CC4)c4ncnc(N)c34)ccc2n1` [BKI-1369]: the values for the CC50 (in the data set on HepG2 (hepatocyte) cells; in data set [6]; in data set [8]) were above 80 µM, above 20 µM and above 80 µM, respectively. Further, the “Embryo toxicity” value in [1] is “very low embryo toxicity”. In the data set with N. caninum tachyzoites [9], the EC50 came out at 0.035 µM. For the same compound, the “Offspring mortality (dead/born pups)” value in the data set on pregnant BALB/c mice [4] is recorded as 0/31. Moreover, in the data set on pregnant BALB/c mice [4] (setting [11]), the “Fertility (pregnant/mated females)” value is 5/6. In addition, in the data set on pregnant BALB/c mice [4] (setting [11]), the Pups/dams is recorded as 31/5.

On to `CCOc1ccc2cc(-c3nn(C(C)(C)C)c(N)c3C(N)=O)cnc2c1` [BKI-1517], for which the CC50 was above 40 µM with HepG2 (hepatocyte) cells, above 20 µM in [6] and above 40 µM in data set [8]. The “Embryo toxicity” value in [1] is recorded as “high toxicity at all concentrations”. Also, the results for the “Embryonal alterations observed during BKI-exposure” value in data set [1] (20 μM) and in data set [1] (50 μM) were “tail curvature; also recorded: half-hatched embryo” and “pericardial edema”, respectively. The “Lowest concentration exerting a negative Si” value in data set [1] (listed as 1517) was 0,2 μM; in data set [1] (listed as -1517) it was 0.2 µM. Also, the EC50 with N. caninum tachyzoites [9] worked out at 0.269 µM. In the data set on rats, the “Change in mean arterial pressure” value was “significant change in mean arterial pressure”. The “Fertility (pregnant/mated females)” value with pregnant BALB/c mice [4] (setting [11]) was “^*2/7”. Besides, the Neonatal mortality in [10] is 100%. The “hERG inhibition in vitro” value in [7] (no reference given) is listed as “did not inhibit”.
